In one assay the test system is T1, PDE4.
T1 construct: IC50 on phosphodiesterase isozyme 4; other: mean ± S.E.M. (n)
In words: Inhibition of cyclic nucleotide PDE activity (Assay I), PDE4, incl. Lineweaver-Burk analysis. Type of assay: biochemical, guinea pig. Conditions: for IC50: mean ± S.E.M. (n), read-out: IC50 on phosphodiesterase isozyme 4. On the procedure:
(§1) Under a protocol approved by the Animal Care and Use Committee of Taipei Medical University, five male guinea pigs (Hartley), weighing 500-600 g, were sacrificed. The lungs (15 g) or hearts (4 g) taken therefrom were chopped into small pieces and homogenized with a glass/teflon homogenizer (Glas-Col, Terre Haute, Ind., USA) in 10 volumes of cold medium (pH 6.5) containing 20 mM Bis-Tris, 2 mM benzamidine, 2 mM EDTA, 50 mM sodium chloride, 0.1 mM phenylmethanesulfonyl fluoride (PMSF), and 1 mM dithiothreitol. At 4° C., the homogenate was centrifuged at 170 g for 15 min, and the supernatant thereof was then re-centrifuged at 40,000 g for 30 min. […] The column was washed with two bed volumes of homogenate buffer to remove unbound material, where the resin beads therein will bind with proteins, such as PDE proteins. Proteins bound to the Q-sepharose beads were eluted with various concentrations (0.23, 0.34, 0.44, 0.69, and 1.00 M) of NaCl dissolved in homogenate buffer (for each concentration, 40-50 mL elution buffer were applied) at a flow rate of 30 ml/h. Fractions (3 ml each) were collected, and ethylene glycol (EG) was added thereto until a final concentration of 30% (v/v). And then the samples were frozen at −70° C.
(§2) The activities of PDE1-5 in the homogenate were measured with a two-step procedure according to the method of Thompson and Appleman, using cAMP with [^3H]-cAMP or cGMP with [^3 H]-cGMP as substrates. The PDE enzyme prepared (25 μl) with 10 μl inhibitor or the solvents therefor was incubated for 30 min at 37° C. in a total assay buffer, where the final volume of the assay is amounted to 100 μl. In accordance with the features of the PDE isozymes, the assay buffer contains 50 mM Tris/HCl (pH 7.4), 3 mM MgCl2, 1 mM dithiothreitol, and 0.05% BSA, and optionally contains 1 uM cAMP with 0.2 μCi [^3H]-cAMP as a substrate alone or in the presence of 0.1 unit calmodulin with 10 μM CaCl2, or 5 μM cGMP, and 1 μM cGMP with 0.2 μCi [^3H]-cGMP as another substrate alone or in the presence of 0.1 unit calmodulin with 10 μM CaCl2.
(§3) The PDE enzyme and the inhibitors (or their solvent) therefor were mixed and incubated on ice for 30 min previously, and then mixed with the assay buffer. The assay was initiated by transferring the mixture to a water bath at 37° C. Following the other 30 min incubation, the reaction was stopped by transferring the reaction vessel to a bath of boiling water for 3 min. After cooling on ice, 20 μl of the 1 mg/ml of Crotalus atrox venom was added to the reaction mixture, and the mixture was incubated at 37° C. for 10 min. The uncatalyzed substrates, such as cAMP, [^3H]-cAMP, cGMP, or [^3H]-cGMP were removed by the addition of 500 μl of a 1-in-1 Tris-HCl (40 mM) buffer suspension of Dowex resin (1×8-200) with incubation on ice for 30 min, since the bindings of the cyclic nucleotides and the resin. Each tube was then centrifuged for 2 min at 6000 rpm, and 100 μl of the supernatant was removed and counted by a β-counter for calculating the enzyme (PDEs) activity.
The dissociation constant of inhibitor binding (Ki) value was determined from the equation of apparent Km as a function of the inhibitor concentration (insert in A and B, respectively). The slope of the equation is equal to the value of […] (where KM is Michaelis constant). The amounts of the total proteins are calculated based on the analytical method reported by Bradford. In FIGS. 1A and 1B, all enzyme activities are shown as nmole of substrate per mg of proteins per minute (nmole/mg/min) hydrolyzed.
(§4) The IC50 values of flavonoids and various reference drugs were calculated using non-linear regression analysis by the software SigmaPlot 7.0 (Sigma Chemical, St. Louis Mo., USA).

In another assay the target is PDE5 (Cavia porcellus, UniProt H0VD23). In words: Inhibition of cyclic nucleotide PDE activity (Assay I), PDE5. Type of assay: biochemical, guinea pig. On the procedure: as §1, with “Proteins bound to the Q-sepharose beads were eluted with various concentrations (0.23, 0.34, 0.44, 0.69, and 1.00 M) of NaCl dissolved in homogenate buffer (for each concentration, 40-50 mL elution buffer were applied) at a flow rate of 30 ml/h. Fractions (3 ml each) were collected, and ethylene glycol (EG) was added thereto until a final concentration of 30% (v/v).” left out
In order to eliminate possible contamination of PDE5 by PDE1, the above-collected fractions with enzyme activity was further purified on a calmodulin-agarose column. The column (1.6 cm×4 cm) was pre-equilibrated by a buffer A, which contains 20 mM Bis-tris, 1 mM dithiothreitol, 2 mM benzamidine, 50 mM NaCl, 3 mMMgCl2, 0.1 mM CaCl2, and 0.1 mM PMSF, pH 6.5. The sample (the mixture of PDE5 and PDE1), being purified by the above-mentioned column, with the CaCl2 concentration thereof adjusted to at least 2 mM previously, was loaded and allowed to be absorbed on the gel for 30 min. Then, the PDE isozymes were eluted by stepwise elution using 20 ml of buffer A with 1 M NaCl followed by 20 ml of buffer A with 1 M NaCl and with 1 mM EGTA.
as §2, §3, §4

The mark [1] stands for this setting: mean ± S.E.M. (n), read-out: IC50 on phosphodiesterase isozyme 5.

SMILES strings stand for the structures. Read-outs that look alike come from different tables or passages of the source. A value given as a limit tells only on which side of the number the result lay.

As to `O=c1cc(-c2ccc(O)c(O)c2)oc2cc(O[C@@H]3O[C@H](CO)[C@@H](O)[C@H](O)[C@H]3O)cc(O)c12` [Luteolin-7-glucoside], the IC50 in the assay on PDE4 was 43 ± 5.3 µM; at PDE5 (setting [1]), more than 100 µM. As to `O=c1c(-c2ccc(O)cc2)coc2cc(O)cc(O)c12` [Genistein], 73.9 ± 7.1 µM corresponded to half-maximal inhibition at PDE5 (IC50). Take `O=c1c(O)c(-c2cc(O)c(O)c(O)c2)oc2cc(O)cc(O)c12` [Myricetin]: at PDE5 (setting [1]), the IC50 is more than 100 µM.

As for `O=c1cc(-c2ccc(O)cc2)oc2cc(O)cc(O)c12` [Apigenin], the IC50 with PDE4 and on PDE5 (setting [1]) was more than 100 µM throughout. In the case of `O=c1c(O)c(-c2ccc(O)c(O)c2)oc2cc(O)cc(O)c12` [Quercetin], the half-inhibitory concentration (IC50) at PDE5 (setting [1]) is more than 100 µM.

The compound `COc1cc(O)c2c(=O)c(-c3ccc(O)cc3)coc2c1` [Prunetin] gave an IC50 against PDE5 of more than 100 µM. Regarding `COc1ccc(C2CC(=O)c3c(O)cc(O)cc3O2)cc1O` (stereo not shown) [Hesperetin], the “mode of inhibition of PDE4 enzyme activity” value in the assay on PDE4 (Lineweaver-Burk plot, cAMP substrate, FIG. 1A) was “competitively inhibits”. Besides, the IC50 on PDE5 (setting [1]) is more than 100 µM. On to `O=c1cc(-c2ccc(O)c(O)c2)oc2cc(O)cc(O)c12` [Luteolin], for which the IC50 was found to be 19.1 ± 2.4 µM in the assay with PDE4 and 19.3 ± 3.2 µM at PDE5 (setting [1]). Turning to `O=C1CC(c2ccc(O)c(O)c2)Oc2cc(O)cc(O)c21` (stereo not shown) [Eriodictyol], the IC50 in the assay on PDE4 and on PDE5 (setting [1]) was more than 100 µM throughout.

On to `O=c1c(-c2ccc(O)cc2)coc2cc(O)ccc12` [Daidzein], for which the IC50 with PDE4 and at PDE5 (setting [1]) was more than 100 µM throughout. As to `COc1ccc(-c2coc3cc(O)cc(O)c3c2=O)cc1` [Biochanin A], on PDE5 (setting [1]), the IC50 is more than 100 µM. Consider `O=c1cc(-c2ccccc2)oc2cc(O)cc(O)c12` [Chrysin], for which the concentration for half-maximal inhibition (IC50) in the assay with PDE4 and at PDE5 (setting [1]) was more than 100 µM in each case.

One may read the IC50 as the concentration that gives 50% inhibition.
